Assay results from patent US20140323500A1, “NADPH OXIDASE 4 INHIBITORS AND USE THEREOF” (GENKYOTEX SA, priority 2011, published 2014).

System: female mice subjected to ovariectomy
Test: Ovariectomy-induced osteoporosis (bone loss) in mice
Type: in vivo
Description: BMD of the left femur was measured by peripheral quantitative computed tomography (QCT) using an XCT Research QCT machine (Stratec Medizintechnik, Pforzheim, Germany). One slice (0.2 mm thick) in the mid-diaphysis of the femur and 3 slices in the distal femoral metaphysis located 1.5, 2, and 2.5 mm proximal to the articular surface of the knee joint were measured. BMD values of the distal femoral metaphysic were calculated as the mean of 3 slices. A voxel size of 0.070 mm and a threshold of 710 mg/cm^3 were used for calculation of BMD as described in Hofbauer et al., 2009, Arthritis Rheum., 60(5):1427-1437.
The control group received daily gavages by the solvent.
To study the latter effect, female mice were subjected to ovariectomy to induce osteoporosis and the effect of pharmacological inhibition of Nox4 with a Nox4 inhibitor as well as acute genetic knockout of the protein was studied. For this, mice were subjected to ovariectomy 8 weeks after birth and treatment at 60 mg/kg with a Nox4 inhibitor of the invention was started 2 days after the operation and continued throughout the study (6 weeks).
3, Hamburg was used which completely blocks osteoclast activity. […] For this, bones were scanned with a skyscan 1176 and bone density was analysed with the integrated software using two phantoms with 0.25 g/cm^3 and 0.75 g/cm^3 as reference. A 2 mm portion of the femur from the tibia plateau was analysed for total and trabecular bone density by the software provided by the manufacturer of the machine. […] For this method, the femurs were loaded to failure by 3-point bending tests using a Zwick Z020/TN2A materials testing machine (Zwick, Ulm, Germany) with a 1 kN force detector, and a force resolution of 0.01N. The distance between the lower supports for the bending tests was 5 mm. Crosshead speed during testing was 0.2 mm/minute for all measurements. From the force-displacement data, ultimate force (Fmax; in N) was calculated.

COc1ccc(-c2c3c(=O)n(-c4ccccc4OC)[nH]c3cc(=O)n2Cc2cccnc2)c(F)c1 [Compound (1), 4-(2-fluoro-4-methoxyphenyl)-2-(2-methoxyphenyl)-5-(pyridin-3-ylmethyl)-1H-pyrazolo[4,3-c]pyridine-3,6(2H,5H)-dione]
absolute bone density (total) (distal femur 6 weeks after ovariectomy, compound 1 at 20 and 60 mg/kg, pamidronat 10 mg/kg once a week, microCT, FIG. 6A): increased absolute bone density
absolute trabecular bone density (distal femur 6 weeks after ovariectomy, compound 1 at 20 and 60 mg/kg, pamidronat 10 mg/kg once a week, microCT, FIG. 6B): increased
relative inhibition of ovarectomy-induced total bone loss (distal femur 6 weeks after ovariectomy, compound 1 at 20 and 60 mg/kg, pamidronat 10 mg/kg once a week, microCT, FIG. 6C): ~50%
relative inhibition of trabecular bone loss (distal femur 6 weeks after ovariectomy, compound 1 at 20 and 60 mg/kg, pamidronat 10 mg/kg once a week, microCT, FIG. 6D): approximately 60%
bone breaking strength (3-point breaking test) (highest concentration (of 20 and 60 mg/kg), femur, 6 weeks after ovariectomy, FIG. 6E): significant increase in bone breaking strength
